Data from ChEMBL document CHEMBL1201862, “PubChem BioAssay data set” (2004).
The source made the active and inactive calls.

What was measured:
[1] = target: T1, Short transient receptor potential channel 4 (Mus musculus, UniProt Q9QUQ5); assay: calcium entry via TRPC4 opening agents – cell-based, HEK293 TRPC4/mu-opioid, Fluo-4 calcium, dose response (AID 434937); assay type: functional
T1 sequence (Q9QUQ5 whole entry): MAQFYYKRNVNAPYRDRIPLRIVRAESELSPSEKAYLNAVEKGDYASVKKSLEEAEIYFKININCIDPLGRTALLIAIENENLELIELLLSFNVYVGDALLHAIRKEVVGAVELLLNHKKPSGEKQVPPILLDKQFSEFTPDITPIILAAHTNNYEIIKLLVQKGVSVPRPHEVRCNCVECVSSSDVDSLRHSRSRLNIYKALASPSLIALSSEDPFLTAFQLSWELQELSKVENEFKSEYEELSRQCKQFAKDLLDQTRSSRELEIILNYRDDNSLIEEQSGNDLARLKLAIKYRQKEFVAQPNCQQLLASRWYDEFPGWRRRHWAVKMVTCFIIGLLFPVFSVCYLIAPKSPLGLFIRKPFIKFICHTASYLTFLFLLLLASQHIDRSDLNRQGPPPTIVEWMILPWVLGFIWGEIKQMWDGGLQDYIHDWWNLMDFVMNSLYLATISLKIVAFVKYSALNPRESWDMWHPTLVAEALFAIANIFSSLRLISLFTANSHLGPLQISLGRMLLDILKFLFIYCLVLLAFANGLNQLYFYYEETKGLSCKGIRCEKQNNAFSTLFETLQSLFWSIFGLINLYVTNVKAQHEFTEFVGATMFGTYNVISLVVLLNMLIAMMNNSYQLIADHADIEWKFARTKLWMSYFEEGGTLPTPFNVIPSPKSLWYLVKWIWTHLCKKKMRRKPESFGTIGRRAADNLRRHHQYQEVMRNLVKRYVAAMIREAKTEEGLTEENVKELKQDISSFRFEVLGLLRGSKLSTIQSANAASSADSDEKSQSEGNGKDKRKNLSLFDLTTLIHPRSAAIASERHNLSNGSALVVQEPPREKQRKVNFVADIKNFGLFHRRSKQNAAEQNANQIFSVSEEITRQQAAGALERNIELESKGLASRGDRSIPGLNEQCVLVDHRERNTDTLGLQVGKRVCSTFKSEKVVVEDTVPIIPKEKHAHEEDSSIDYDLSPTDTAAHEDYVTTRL

[2] = luciferase reporter signal suppression in cells – H4 neuroglioma cells, luminescence, dose response (AID 1990); assay type: functional, cell-based
[3] = HEK-293T viability loss after treatment – luminescence, T-cell screen hits, cytotoxicity control for TCR NF-kB inhibitor project, dose response (AID 489026); assay type: functional, cell-based;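 also: cells exposed to compound about 14 hours before the viability readout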
[4] = alpha-synuclein stem-loop luciferase translation blockers – H4 neuroglioma cells, luminescence, confirmation (AID 1988); assay type: functional, cell-based
[5] = Luminescence Cell-Based Dose Response HTS to Identify Inhibitors of 5'UTR Stem-Loop Driven Prion Protein mRNA Translation in H4 Neuroglioblastoma Cells. [Related pubchem assays: 1827 (Project Summary), 1813 (Primary HTS)]; assay type: functional
[6] = target: T2, Corticotropin-releasing factor receptor 2/Corticotropin-releasing factor-binding protein (Homo sapiens, UniProt P24387+Q13324); assay: Dose Response confirmation of uHTS hits for small molecule antagonists of the CRF-binding protein and CRF-R2 receptor complex.; assay type: functional; conditions: read-out: IC50_Mean
T2 sequence (Q13324 whole entry): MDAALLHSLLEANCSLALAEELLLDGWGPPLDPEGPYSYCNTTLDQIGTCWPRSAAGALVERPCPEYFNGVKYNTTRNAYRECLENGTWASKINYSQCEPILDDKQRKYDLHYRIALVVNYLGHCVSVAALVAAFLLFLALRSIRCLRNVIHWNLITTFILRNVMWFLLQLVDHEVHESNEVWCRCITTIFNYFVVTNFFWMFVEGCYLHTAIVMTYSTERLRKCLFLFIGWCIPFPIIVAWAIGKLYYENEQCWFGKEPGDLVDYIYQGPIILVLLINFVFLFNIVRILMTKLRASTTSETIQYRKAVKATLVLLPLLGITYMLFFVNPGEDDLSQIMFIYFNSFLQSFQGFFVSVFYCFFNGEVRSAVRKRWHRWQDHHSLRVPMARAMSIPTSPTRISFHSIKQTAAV
T2 sequence (P24387 whole entry): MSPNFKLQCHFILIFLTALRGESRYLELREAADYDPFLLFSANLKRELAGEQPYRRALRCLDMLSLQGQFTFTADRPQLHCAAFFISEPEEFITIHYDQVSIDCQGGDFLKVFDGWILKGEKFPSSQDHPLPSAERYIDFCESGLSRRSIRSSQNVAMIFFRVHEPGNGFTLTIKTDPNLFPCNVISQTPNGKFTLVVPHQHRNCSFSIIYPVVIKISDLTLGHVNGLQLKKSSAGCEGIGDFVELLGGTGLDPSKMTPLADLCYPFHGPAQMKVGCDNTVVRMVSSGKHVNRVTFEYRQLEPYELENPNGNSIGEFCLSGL

[7] = target: T2, Corticotropin-releasing factor receptor 2/Corticotropin-releasing factor-binding protein; assay: activators of CRF receptor 2 with binding protein – uHTS hits, confirmation (AID 602473); assay type: functional; conditions: read-out: EC50_Mean
[8] = target: Nonstructural protein 1 (Influenza A virus, UniProt Q194T2); assay type: functional, Influenza A virus (A/California/07/2009(H1N1))
[9] = target: T3, High affinity choline transporter 1 (Homo sapiens, UniProt Q9GZV3); assay: human choline transporter blockers, potency – cell-based, 5-point CRC, membrane potential dye, dose response (AID 504840); assay type: functional
T3 sequence (Q9GZV3 whole entry): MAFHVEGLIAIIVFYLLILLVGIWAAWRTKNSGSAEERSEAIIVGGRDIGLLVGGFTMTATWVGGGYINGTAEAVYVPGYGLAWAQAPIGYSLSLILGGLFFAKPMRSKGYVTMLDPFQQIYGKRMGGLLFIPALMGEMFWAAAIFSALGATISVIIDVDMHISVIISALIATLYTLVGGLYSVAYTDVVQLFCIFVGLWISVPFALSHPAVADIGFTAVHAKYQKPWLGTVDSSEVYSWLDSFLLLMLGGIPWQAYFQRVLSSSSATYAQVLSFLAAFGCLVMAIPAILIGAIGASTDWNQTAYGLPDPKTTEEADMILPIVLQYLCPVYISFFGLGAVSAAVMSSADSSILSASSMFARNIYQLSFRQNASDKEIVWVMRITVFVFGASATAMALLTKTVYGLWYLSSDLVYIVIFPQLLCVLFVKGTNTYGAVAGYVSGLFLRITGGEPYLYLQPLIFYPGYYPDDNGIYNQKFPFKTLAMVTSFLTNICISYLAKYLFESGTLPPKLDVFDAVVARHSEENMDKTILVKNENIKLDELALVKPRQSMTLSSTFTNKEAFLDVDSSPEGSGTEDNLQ

[10] = microbe, parasite or virus in culture; assay type: functional; conditions: Mycobacterium tuberculosis
[11] = system: HEK293; assay: inhibition of NOD1-driven NF-kB reporter – cell-based, luminescence, uHTS, primary screen (AID 1578); assay type: functional; conditions: Homo sapiens
[12] = system: HEK293; assay: NOD2 signaling inhibitors in MDP-stimulated cells, cell-based, uHTS, luminescence (AID 2001); assay type: functional; conditions: Homo sapiens
[13] = system: HEK293; assay: cells; assay type: functional, cell-based; conditions: Homo sapiens
[14] = system: Vero; assay: cells; assay type: functional; conditions: Chlorocebus sabaeus
[15] = Luminescence Cell-Based Dose Retest to Confirm Inhibitors of Cancer Stem Cells. [Related pubchem assays (depositor defined):AID2717, AID2721]; assay type: functional; conditions: Homo sapiens
[16] = system: HEK293; assay: cells; assay type: functional, cell-based; conditions: Homo sapiens; remark: listed apart in the source
[17] = system: Streptococcus sp. 'group A'; assay: Streptococcus pyogenes SK(-)GAS viability under kanamycin – luminescence, BacTiterGlo, confirmation, counter-screen for streptokinase expression inhibitor project, dose response (AID 1900); assay type: functional, organism-based
[18] = system: Streptococcus; assay: GAS UMAA2166 growth inhibition – luminescence, BacTiterGlo, counter-screen for streptokinase expression inhibitor project, dose response (AID 1915); assay type: functional, organism-based;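 also: potency for reduction of bacterial viability or growth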
[19] = system: INS1; assay: INS-1E survival protection against cytokine death – cell-based, luminescence, retest, dose response (AID 449756); assay type: functional; conditions: Rattus norvegicus;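 also: cell death triggered by IL-1 beta plus TNF-alpha plus IFN-gamma mixture; protective hits raise ATP signal compared with cytokine alone wells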
[20] = target: T4, Streptokinase A (Streptococcus pyogenes serotype M1, UniProt P10520); assay: viability-normalized secreted streptokinase activity reduction – plasminogen activation absorbance, OD405, dose response (AID 1914); assay type: functional, Streptococcus pyogenes M1 GAS;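 also: secreted streptokinase activity via plasminogen activation per viability signal from cell pellet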
T4 sequence (P10520 whole entry): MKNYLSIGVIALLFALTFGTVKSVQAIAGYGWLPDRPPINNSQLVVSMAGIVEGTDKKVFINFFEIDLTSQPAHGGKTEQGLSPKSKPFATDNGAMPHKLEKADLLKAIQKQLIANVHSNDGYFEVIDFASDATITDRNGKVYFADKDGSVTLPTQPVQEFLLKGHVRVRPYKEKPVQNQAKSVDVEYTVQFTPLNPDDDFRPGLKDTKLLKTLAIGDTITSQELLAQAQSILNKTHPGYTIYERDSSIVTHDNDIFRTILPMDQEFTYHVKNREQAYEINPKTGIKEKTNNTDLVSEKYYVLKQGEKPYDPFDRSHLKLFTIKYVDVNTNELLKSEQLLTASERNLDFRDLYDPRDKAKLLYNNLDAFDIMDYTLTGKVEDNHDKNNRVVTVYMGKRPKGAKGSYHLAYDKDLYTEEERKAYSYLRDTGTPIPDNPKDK

[21] = HGIII-sPLA2 enzyme inhibition potency – biochemical, QFRET, IC50, dose response (AID 743457);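 also: green fluorescence rise as the enzyme cleaves BODIPY PC-A2 in liposomes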

Chain of Nonstructural protein 1 (Q194T2 whole entry): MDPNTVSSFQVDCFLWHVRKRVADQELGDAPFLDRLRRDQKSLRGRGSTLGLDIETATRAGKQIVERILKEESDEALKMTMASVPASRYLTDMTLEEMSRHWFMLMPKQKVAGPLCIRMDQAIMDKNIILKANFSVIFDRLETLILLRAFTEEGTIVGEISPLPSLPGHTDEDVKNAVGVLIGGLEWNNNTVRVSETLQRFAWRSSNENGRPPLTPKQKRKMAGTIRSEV

With Cc1oc(-c2ccccc2Cl)nc1C[S+]([O-])CC(=O)NCCCN1CC(C)CC(C)C1 (configuration not stated) the EC50 [1] was 0.299 µM (active).

For COc1ccccc1NC(=O)C1=C(C)Nc2nc3ccccc3n2C1c1cccs1 (configuration not stated), the EC50 [2] was 7.89 µM (inconclusive), the IC50 [3] was > 80 µM (inactive) and the EC50 [4] was 5.03 µM (active). For the same compound, the EC50 [5] was 9.88 µM (active).

With Cc1onc(-c2c(F)cccc2Cl)c1C(=O)N1CCN(c2ncc(Br)cn2)CC1 the EC50 [1] was 4.73 µM (active), the IC50 [6] was > 47.1 µM (inactive) and the EC50 [7] was > 53 µM (inactive).

With N#CC(C#N)=c1ccc2c(c1)N1C3=C(CCCC3)CC3CCCCC31N=2 (configuration not stated) the IC50 [8] was 11.2 µM (active), the IC50 [9] was 11 µM (active) and the CC50 [10] was 29.5 µM (active).

For O=C(Nc1ccc(S(=O)(=O)N2CCOCC2)cc1)c1cc(-c2cc(Cl)ccc2O)n[nH]1, the EC50 [11] was > 20 µM (inactive), the IC50 [12] was 6.8 µM (active) and the IC50 [13] was 7.45 µM (active). For the same compound, the CC50 [14] was 10.9 µM (active), the AC50 [15] was 0.962 µM (active) and the IC50 [16] was 6.05 µM (active).

For CCOC(=O)c1oc2ccc(OC)cc2c1NC(=O)CN1CCN(C)CC1, the EC50 [1] was 1.06 µM (active).

For O=C(Nc1ccc([N+](=O)[O-])cc1)Nc1ccc(Cl)cc1F, the EC50 [11] was 18.7 µM (active), the EC50 [17] was > 150 µM (not active) and the EC50 [18] was > 150 µM (not active). For the same compound, the AC50 [19] was 3.73 µM (active), the IC50 [12] was 3.26 µM (inactive) and the IC50 [13] was > 20 µM (inactive). The EC50 [20] was > 150 µM (not active) and the IC50 [16] was 3.12 µM (active).

In the case of CCCN(CCC)CCCNC(=O)c1ccc2c(Cl)c3c(nc2c1)CCC3, the EC50 [1] is reported as 0.0107 µM (active).

For Cc1ccc(C(=O)CSc2nnc(-c3ccco3)n2C)cc1, the IC50 [9] was 9.62 µM (active).

For O=C(NNC(=S)NC(=O)c1ccccc1Cl)c1cccc([N+](=O)[O-])c1, the EC50 [1] was 5.96 µM (active), the CC50 [14] was > 25 µM (active) and the IC50 [21] was 22.3 µM (inactive). For the same compound, the EC50 [7] was 11.2 µM (active).
